Measured values: the kinase profiling compilation of Christmann-Franck et al. (2016)

Assays:
Assay in all cases: Caliper, Mobility shift assay off-chip
[1] = test system: ABL1 (human), P00519 [Q252H]
ABL2 (human) = ABL2 (human) (UniProt P42684)
AKT1 (human) = AKT1 (human) (UniProt P31749)
AKT2 (human) = AKT2 (human) (UniProt P31751)
AKT3 (human) = AKT3 (human) (UniProt Q9Y243)
AURKB (human) = AURKB (human) (UniProt Q96GD4)
BMX (human) = BMX (human) (UniProt P51813)
CAMK2D (human) = CAMK2D (human) (UniProt Q13557)
CAMK2G (human) = CAMK2G (human) (UniProt Q13555)
CDK2 (human) = CDK2 (human) (UniProt P24941)
EGFR (human) = EGFR (human) (UniProt P00533)
FER (human) = FER (human) (UniProt P16591)
[2] = test system: FLT3 (human), P36888 [D835Y]
IKBKB (human) = IKBKB (human) (UniProt O14920)
IRAK4 (human) = IRAK4 (human) (UniProt Q9NWZ3)
LYN (human) = LYN (human) (UniProt P07948)
MAPK12 (human) = MAPK12 (human) (UniProt P53778)
MAPKAPK2 (human) = MAPKAPK2 (human) (UniProt P49137)
MAPKAPK3 (human) = MAPKAPK3 (human) (UniProt Q16644)
NEK2 (human) = NEK2 (human) (UniProt P51955)
PAK2 (human) = PAK2 (human) (UniProt Q13177)
PIM1 (human) = PIM1 (human) (UniProt P11309)
PRKCA (human) = PRKCA (human) (UniProt P17252)
PRKCB1 (human) = PRKCB1 (human) (UniProt P05771)
PRKCB2 (human) = PRKCB2 (human) (UniProt P05771)
PRKCD (human) = PRKCD (human) (UniProt Q05655)
PRKCE (human) = PRKCE (human) (UniProt Q02156)
PRKD3 (human) = PRKD3 (human) (UniProt O94806)
RPS6KA1 KD1 KD2 (human) = RPS6KA1 KD1 KD2 (human) (UniProt Q15418)
RPS6KA2 KD1 KD2 (human) = RPS6KA2 KD1 KD2 (human) (UniProt Q15349)
SGK2 (human) = SGK2 (human) (UniProt Q9HBY8)
SRC (human) = SRC (human) (UniProt P12931)
STK3 (human) = STK3 (human) (UniProt Q13188)
SYK (human) = SYK (human) (UniProt P43405)

Sequence of SRC (human) (P12931 whole entry, looked up): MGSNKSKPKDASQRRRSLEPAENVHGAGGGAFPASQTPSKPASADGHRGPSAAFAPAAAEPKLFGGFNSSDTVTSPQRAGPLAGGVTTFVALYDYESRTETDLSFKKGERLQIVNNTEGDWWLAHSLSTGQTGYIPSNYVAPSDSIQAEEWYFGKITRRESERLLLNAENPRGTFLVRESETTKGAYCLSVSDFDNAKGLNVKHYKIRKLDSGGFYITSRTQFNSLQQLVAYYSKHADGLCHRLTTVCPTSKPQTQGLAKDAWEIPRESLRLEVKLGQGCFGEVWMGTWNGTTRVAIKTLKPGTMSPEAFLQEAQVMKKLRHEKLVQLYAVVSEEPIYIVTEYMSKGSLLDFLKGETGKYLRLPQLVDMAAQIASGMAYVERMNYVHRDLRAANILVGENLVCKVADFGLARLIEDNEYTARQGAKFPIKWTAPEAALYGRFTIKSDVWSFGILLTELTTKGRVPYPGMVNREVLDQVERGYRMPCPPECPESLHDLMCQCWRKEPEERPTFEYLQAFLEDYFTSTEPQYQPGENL
Sequence of EGFR (human) (P00533 whole entry, looked up): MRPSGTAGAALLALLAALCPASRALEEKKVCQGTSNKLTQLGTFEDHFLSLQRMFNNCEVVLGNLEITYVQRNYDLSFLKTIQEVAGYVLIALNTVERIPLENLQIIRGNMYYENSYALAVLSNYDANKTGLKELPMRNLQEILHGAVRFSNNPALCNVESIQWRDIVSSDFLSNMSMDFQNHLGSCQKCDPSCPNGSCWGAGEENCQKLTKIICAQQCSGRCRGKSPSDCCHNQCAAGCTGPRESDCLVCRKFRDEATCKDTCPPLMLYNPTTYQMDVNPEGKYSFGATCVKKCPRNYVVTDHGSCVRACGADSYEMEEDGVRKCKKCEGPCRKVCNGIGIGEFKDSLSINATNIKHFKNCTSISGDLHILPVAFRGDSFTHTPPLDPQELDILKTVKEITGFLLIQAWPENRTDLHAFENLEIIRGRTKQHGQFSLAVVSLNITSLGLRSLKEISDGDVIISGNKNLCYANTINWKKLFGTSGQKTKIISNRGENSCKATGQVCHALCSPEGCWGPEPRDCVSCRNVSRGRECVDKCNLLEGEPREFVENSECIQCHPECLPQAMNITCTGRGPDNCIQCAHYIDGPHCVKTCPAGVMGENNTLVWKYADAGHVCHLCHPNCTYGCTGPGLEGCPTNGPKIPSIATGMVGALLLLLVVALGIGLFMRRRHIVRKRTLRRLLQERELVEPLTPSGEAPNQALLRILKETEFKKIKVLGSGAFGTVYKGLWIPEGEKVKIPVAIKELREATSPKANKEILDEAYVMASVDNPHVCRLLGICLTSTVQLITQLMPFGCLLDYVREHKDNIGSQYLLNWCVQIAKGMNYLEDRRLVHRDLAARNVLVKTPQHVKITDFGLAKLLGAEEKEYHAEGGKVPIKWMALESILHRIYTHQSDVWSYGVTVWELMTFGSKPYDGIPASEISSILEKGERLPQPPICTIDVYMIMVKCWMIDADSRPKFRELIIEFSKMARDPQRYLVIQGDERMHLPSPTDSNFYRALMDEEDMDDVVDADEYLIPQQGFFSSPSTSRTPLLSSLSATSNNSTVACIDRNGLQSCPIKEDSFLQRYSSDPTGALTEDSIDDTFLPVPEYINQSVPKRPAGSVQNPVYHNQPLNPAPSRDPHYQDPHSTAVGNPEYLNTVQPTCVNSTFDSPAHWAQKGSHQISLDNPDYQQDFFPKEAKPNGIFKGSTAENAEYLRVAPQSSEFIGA
Sequence of STK3 (human) (Q13188 whole entry, looked up): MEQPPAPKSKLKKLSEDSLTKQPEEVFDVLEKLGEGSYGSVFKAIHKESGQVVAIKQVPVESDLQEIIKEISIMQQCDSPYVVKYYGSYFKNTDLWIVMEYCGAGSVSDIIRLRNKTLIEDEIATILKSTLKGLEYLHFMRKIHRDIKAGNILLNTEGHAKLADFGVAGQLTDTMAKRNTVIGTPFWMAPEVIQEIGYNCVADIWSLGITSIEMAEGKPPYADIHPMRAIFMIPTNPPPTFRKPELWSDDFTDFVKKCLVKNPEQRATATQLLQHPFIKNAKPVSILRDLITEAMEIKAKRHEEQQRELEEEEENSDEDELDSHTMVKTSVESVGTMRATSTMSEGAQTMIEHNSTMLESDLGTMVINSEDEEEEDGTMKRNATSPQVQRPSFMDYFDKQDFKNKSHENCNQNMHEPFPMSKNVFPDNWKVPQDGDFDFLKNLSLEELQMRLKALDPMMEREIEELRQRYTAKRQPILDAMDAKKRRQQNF
Sequence of AURKB (human) (Q96GD4 whole entry, looked up): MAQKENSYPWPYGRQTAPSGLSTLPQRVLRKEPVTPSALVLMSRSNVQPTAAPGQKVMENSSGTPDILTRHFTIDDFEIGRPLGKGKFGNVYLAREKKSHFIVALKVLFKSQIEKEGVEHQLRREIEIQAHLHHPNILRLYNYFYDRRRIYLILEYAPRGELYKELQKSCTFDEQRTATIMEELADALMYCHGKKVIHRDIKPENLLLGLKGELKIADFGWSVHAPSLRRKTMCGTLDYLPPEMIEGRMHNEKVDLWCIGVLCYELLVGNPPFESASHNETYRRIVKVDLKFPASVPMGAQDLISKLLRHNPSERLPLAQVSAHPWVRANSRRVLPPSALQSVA
Sequence of SGK2 (human) (Q9HBY8 whole entry, looked up): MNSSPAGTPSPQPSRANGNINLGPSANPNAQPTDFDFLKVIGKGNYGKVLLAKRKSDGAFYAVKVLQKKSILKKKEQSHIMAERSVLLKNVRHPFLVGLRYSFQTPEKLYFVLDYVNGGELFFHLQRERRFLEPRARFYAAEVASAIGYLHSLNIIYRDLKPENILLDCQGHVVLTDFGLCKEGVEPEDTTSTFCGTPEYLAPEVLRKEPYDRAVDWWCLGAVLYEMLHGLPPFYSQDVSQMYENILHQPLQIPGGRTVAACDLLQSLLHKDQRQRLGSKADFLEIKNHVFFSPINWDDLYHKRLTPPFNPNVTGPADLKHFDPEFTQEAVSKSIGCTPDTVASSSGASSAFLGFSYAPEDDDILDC
Sequence of IKBKB (human) (O14920 whole entry, looked up): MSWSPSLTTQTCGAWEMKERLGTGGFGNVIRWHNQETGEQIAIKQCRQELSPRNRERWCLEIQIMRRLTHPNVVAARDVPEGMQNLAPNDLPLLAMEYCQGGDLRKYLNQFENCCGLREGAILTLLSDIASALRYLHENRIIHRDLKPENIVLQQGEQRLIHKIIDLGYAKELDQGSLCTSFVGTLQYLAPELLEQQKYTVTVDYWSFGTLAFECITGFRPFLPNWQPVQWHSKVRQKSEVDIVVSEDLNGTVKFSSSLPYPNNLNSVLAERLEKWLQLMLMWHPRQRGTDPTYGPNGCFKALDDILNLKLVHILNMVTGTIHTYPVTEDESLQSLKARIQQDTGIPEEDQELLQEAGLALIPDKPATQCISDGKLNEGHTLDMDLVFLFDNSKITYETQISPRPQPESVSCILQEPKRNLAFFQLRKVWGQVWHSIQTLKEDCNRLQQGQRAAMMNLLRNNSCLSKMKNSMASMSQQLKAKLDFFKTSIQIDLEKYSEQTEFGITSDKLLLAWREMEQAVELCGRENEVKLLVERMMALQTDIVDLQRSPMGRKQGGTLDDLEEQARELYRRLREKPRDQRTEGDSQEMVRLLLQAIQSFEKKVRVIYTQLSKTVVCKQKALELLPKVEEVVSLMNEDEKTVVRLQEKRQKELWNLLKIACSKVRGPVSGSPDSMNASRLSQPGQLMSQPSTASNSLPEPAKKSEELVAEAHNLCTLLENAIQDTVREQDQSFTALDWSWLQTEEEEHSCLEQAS
Sequence of MAPKAPK3 (human) (Q16644 whole entry, looked up): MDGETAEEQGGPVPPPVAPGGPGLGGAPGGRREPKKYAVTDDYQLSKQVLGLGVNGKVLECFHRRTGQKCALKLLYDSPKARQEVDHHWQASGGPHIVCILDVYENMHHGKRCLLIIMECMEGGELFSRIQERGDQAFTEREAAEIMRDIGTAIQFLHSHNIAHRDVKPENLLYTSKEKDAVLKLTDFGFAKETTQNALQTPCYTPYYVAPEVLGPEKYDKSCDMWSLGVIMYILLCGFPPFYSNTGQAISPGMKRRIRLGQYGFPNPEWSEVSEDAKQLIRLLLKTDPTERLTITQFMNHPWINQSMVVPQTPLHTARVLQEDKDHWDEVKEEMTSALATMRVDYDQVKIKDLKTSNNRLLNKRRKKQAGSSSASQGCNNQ

O=C(CCc1ccc2ccc3ncc(C4CCNCC4)cc3c(=O)c2c1)NCc1ccccn1
inhibition ([1]; compound 0.1 µM): -1.7% | inhibition ([1]; compound 1.0 µM): 8.1% | inhibition (ABL2 (human); compound 0.1 µM): 2.6% | inhibition (ABL2 (human); compound 1.0 µM): -3.4% | inhibition (AKT1 (human); compound 0.1 µM): -7.2% | inhibition (AKT1 (human); compound 1.0 µM): 1.7% | inhibition (AKT2 (human); compound 0.1 µM): -1.5% | inhibition (AKT2 (human); compound 1.0 µM): 3.1% | inhibition (AKT3 (human); compound 0.1 µM): -12.5% | inhibition (AKT3 (human); compound 1.0 µM): 2.1% | inhibition (AURKB (human); compound 0.1 µM): 8% | inhibition (AURKB (human); compound 1.0 µM): 27.6% | inhibition (BMX (human); compound 0.1 µM): -10.4% | inhibition (BMX (human); compound 1.0 µM): 3.2% | inhibition (CAMK2D (human); compound 0.1 µM): -22.5% | inhibition (CAMK2D (human); compound 1.0 µM): -4.6% | inhibition (CAMK2G (human); compound 0.1 µM): -3.5% | inhibition (CAMK2G (human); compound 1.0 µM): -2.8% | inhibition (CDK2 (human); compound 0.1 µM): -10% | inhibition (CDK2 (human); compound 1.0 µM): -6.6% | inhibition (EGFR (human); compound 0.1 µM): -5.8% | inhibition (EGFR (human); compound 1.0 µM): 9.3% | inhibition (FER (human); compound 0.1 µM): -14.2% | inhibition (FER (human); compound 1.0 µM): 0.5% | inhibition ([2]; compound 0.1 µM): -1% | inhibition ([2]; compound 1.0 µM): 3.4% | inhibition (IKBKB (human); compound 0.1 µM): 1.2% | inhibition (IKBKB (human); compound 1.0 µM): -3.1% | inhibition (IRAK4 (human); compound 0.1 µM): -10.2% | inhibition (IRAK4 (human); compound 1.0 µM): 0.3% | inhibition (LYN (human); compound 0.1 µM): 3.5% | inhibition (LYN (human); compound 1.0 µM): -3.2% | inhibition (MAPK12 (human); compound 0.1 µM): 6.1% | inhibition (MAPK12 (human); compound 1.0 µM): 8.3% | inhibition (MAPKAPK2 (human); compound 0.1 µM): -1.1% | inhibition (MAPKAPK2 (human); compound 1.0 µM): 0.8% | inhibition (MAPKAPK3 (human); compound 0.1 µM): -0.3% | inhibition (MAPKAPK3 (human); compound 1.0 µM): 0.5% | inhibition (NEK2 (human); compound 0.1 µM): 6.6% | inhibition (NEK2 (human); compound 1.0 µM): 2.7% | inhibition (PAK2 (human); compound 0.1 µM): 2.1% | inhibition (PAK2 (human); compound 1.0 µM): 13.1% | inhibition (PIM1 (human); compound 0.1 µM): -2.4% | inhibition (PIM1 (human); compound 1.0 µM): -4.4% | inhibition (PRKCA (human); compound 0.1 µM): -9.4% | inhibition (PRKCA (human); compound 1.0 µM): 15.8% | inhibition (PRKCB1 (human); compound 0.1 µM): 1.2% | inhibition (PRKCB1 (human); compound 1.0 µM): -12.2% | inhibition (PRKCB2 (human); compound 0.1 µM): 3.3% | inhibition (PRKCB2 (human); compound 1.0 µM): -13.3% | inhibition (PRKCD (human); compound 0.1 µM): 0.7% | inhibition (PRKCD (human); compound 1.0 µM): -5.4% | inhibition (PRKCE (human); compound 0.1 µM): 9.3% | inhibition (PRKCE (human); compound 1.0 µM): -0.4% | inhibition (PRKD3 (human); compound 0.1 µM): -21.2% | inhibition (PRKD3 (human); compound 1.0 µM): 2.2% | inhibition (RPS6KA1 KD1 KD2 (human); compound 0.1 µM): -2.2% | inhibition (RPS6KA1 KD1 KD2 (human); compound 1.0 µM): 4% | inhibition (RPS6KA2 KD1 KD2 (human); compound 0.1 µM): -4.2% | inhibition (RPS6KA2 KD1 KD2 (human); compound 1.0 µM): -2.5% | inhibition (SGK2 (human); compound 0.1 µM): -1.4% | inhibition (SGK2 (human); compound 1.0 µM): -7.4% | inhibition (SRC (human); compound 0.1 µM): 1.1% | inhibition (SRC (human); compound 1.0 µM): 6.6% | inhibition (STK3 (human); compound 0.1 µM): 1.9% | inhibition (STK3 (human); compound 1.0 µM): 4.5% | inhibition (SYK (human); compound 0.1 µM): -0.6% | inhibition (SYK (human); compound 1.0 µM): -0.5%

Cn1cc(-c2cnc3ccc4ccc(CS(N)(=O)=O)cc4c(=O)c3c2)cn1
inhibition ([1]; compound 0.1 µM): -0.1% | inhibition ([1]; compound 1.0 µM): 24.9% | inhibition (AKT1 (human); compound 0.1 µM): -2.2% | inhibition (AKT1 (human); compound 1.0 µM): 1.3% | inhibition (AKT2 (human); compound 0.1 µM): 1.7% | inhibition (AKT2 (human); compound 1.0 µM): 7.1% | inhibition (AKT3 (human); compound 0.1 µM): 3.1% | inhibition (AKT3 (human); compound 1.0 µM): 3.13% | inhibition (AURKB (human); compound 0.1 µM): 41.7% | inhibition (AURKB (human); compound 1.0 µM): 75% | inhibition (BMX (human); compound 0.1 µM): 1.6% | inhibition (CAMK2D (human); compound 0.1 µM): 4.9% | inhibition (CAMK2D (human); compound 1.0 µM): 25.1% | inhibition (CAMK2G (human); compound 0.1 µM): -17.9% | inhibition (CAMK2G (human); compound 1.0 µM): -1.6% | inhibition (CDK2 (human); compound 0.1 µM): 1.2% | inhibition (CDK2 (human); compound 1.0 µM): -3.9% | inhibition (EGFR (human); compound 0.1 µM): 13.3% | inhibition (EGFR (human); compound 1.0 µM): 9.2% | inhibition (FER (human); compound 0.1 µM): -53.2% | inhibition (FER (human); compound 1.0 µM): -24.2% | inhibition ([2]; compound 0.1 µM): 19.1% | inhibition ([2]; compound 1.0 µM): 73.7% | inhibition (IKBKB (human); compound 0.1 µM): -12% | inhibition (IKBKB (human); compound 1.0 µM): 4.2% | inhibition (IRAK4 (human); compound 0.1 µM): 6% | inhibition (IRAK4 (human); compound 1.0 µM): -8.2% | inhibition (LYN (human); compound 0.1 µM): -8.7% | inhibition (LYN (human); compound 1.0 µM): -2.3% | inhibition (MAPK12 (human); compound 0.1 µM): -5.4% | inhibition (MAPK12 (human); compound 1.0 µM): 2.9% | inhibition (MAPKAPK2 (human); compound 0.1 µM): -2.6% | inhibition (MAPKAPK2 (human); compound 1.0 µM): 8% | inhibition (MAPKAPK3 (human); compound 0.1 µM): 5.4% | inhibition (MAPKAPK3 (human); compound 1.0 µM): 5.7% | inhibition (NEK2 (human); compound 0.1 µM): -1.5% | inhibition (NEK2 (human); compound 1.0 µM): -7.5% | inhibition (PAK2 (human); compound 0.1 µM): 1.7% | inhibition (PAK2 (human); compound 1.0 µM): 0.8% | inhibition (PIM1 (human); compound 0.1 µM): -4.1% | inhibition (PIM1 (human); compound 1.0 µM): 3.7% | inhibition (PRKCA (human); compound 0.1 µM): 3.1% | inhibition (PRKCB1 (human); compound 0.1 µM): -9.3% | inhibition (PRKCB2 (human); compound 0.1 µM): 2.6% | inhibition (PRKCB2 (human); compound 1.0 µM): -6% | inhibition (PRKCD (human); compound 0.1 µM): 5.1% | inhibition (PRKCE (human); compound 0.1 µM): -4.6% | inhibition (PRKCE (human); compound 1.0 µM): 5.9% | inhibition (PRKD3 (human); compound 0.1 µM): -8.8% | inhibition (PRKD3 (human); compound 1.0 µM): -1.8% | inhibition (RPS6KA1 KD1 KD2 (human); compound 0.1 µM): -12.4% | inhibition (RPS6KA1 KD1 KD2 (human); compound 1.0 µM): -3% | inhibition (RPS6KA2 KD1 KD2 (human); compound 0.1 µM): -0.2% | inhibition (RPS6KA2 KD1 KD2 (human); compound 1.0 µM): 9% | inhibition (SGK2 (human); compound 0.1 µM): -0.9% | inhibition (SGK2 (human); compound 1.0 µM): 23.1% | inhibition (SRC (human); compound 0.1 µM): 0.2% | inhibition (SRC (human); compound 1.0 µM): 1.3% | inhibition (STK3 (human); compound 0.1 µM): 4.4% | inhibition (STK3 (human); compound 1.0 µM): 7.9% | inhibition (SYK (human); compound 0.1 µM): 1.9% | inhibition (SYK (human); compound 1.0 µM): 7.6%
